Results taken from publication PMC10398856 (ACS Omega, 2023).

Tests used:
[1] = test system: human coronavirus 229E (HCoV-229E); assay: microbe, parasite or virus in culture; type: cell-based; details: for IC50: Human coronavirus 229E, A549, read-out: IC50, antiviral effect on HCoV-229E
SARS-CoV-2 = assay: microbe, parasite or virus in culture; type: cell-based; details: for EC50: Severe acute respiratory syndrome coronavirus 2, 48 h, read-out: EC50, antiviral effect on SARS-CoV-2
[2] = 1 μM, 30 min, 37 °C
[3] = rat, in vivo
in vivo [4] = details: male, Wistar Albino, rat, po, 10 mg/kg
in vivo [5] = details: female, Wistar Albino, rat, po

## Cc1cccc(CSc2nccc(OCCCOc3cc(=O)oc4ccc(F)cc34)n2)c1 [5h, 6-Fluoro-4-(3-((2-((3-methylbenzyl)thio)pyrimidin-4-yl)oxy)propoxy)-2H-chromen-2-one]
[1]
  IC50: > 25 µM
SARS-CoV-2
  EC50: > 50 µM

## Cc1cccc(CSc2nccc(OCCOc3cc(=O)oc4ccc(F)cc34)n2)c1 [5g, 6-Fluoro-4-(2-((2-((3-methylbenzyl)thio)pyrimidin-4-yl)oxy)ethoxy)-2H-chromen-2-one]
[1]
  IC50: > 25 µM
SARS-CoV-2
  EC50: > 50 µM

## Cc1cccc(CSc2nccc(OCCOc3cc(=O)oc4ccccc34)n2)c1 [5e, 4-(2-((2-((3-Methylbenzyl)thio)pyrimidin-4-yl)oxy)ethoxy)-2H-chromen-2-one]
[1]
  selectivity index, HCoV-229E: 3.06
  IC50: 24.4 µM
1 μM, 30 min, 37 °C
  metabolic stability against human liver microsomes: showed metabolic stability
human
  compound found to be stable in human liver microsomes: > 50%
SARS-CoV-2
  selectivity index, SARS-CoV-2: 11.4
  EC50: 6.59 ± 0.28 µM
[2]
  metabolic stability against rat liver microsomes: showed metabolic stability

## O=c1cc(OCCOc2ccnc(SCc3ccc(F)cc3)n2)c2ccccc2o1 [5a, 4-(2-((2-((4-Fluorobenzyl)thio)pyrimidin-4-yl)oxy)ethoxy)-2H-chromen-2-one]
[1]
  IC50: > 25 µM
SARS-CoV-2
  EC50: > 50 µM

## O=c1cc(OCCOc2ccnc(SCc3ccc(F)cc3)n2)c2cc(F)ccc2o1 [5c, 6-Fluoro-4-(2-((2-((4-fluorobenzyl)thio)pyrimidin-4-yl)oxy)ethoxy)-2H-chromen-2-one]
[1]
  IC50: > 25 µM
SARS-CoV-2
  EC50: > 50 µM

## O=c1cc(OCCCOc2ccnc(SCc3ccc(F)cc3)n2)c2ccccc2o1 [5b, 4-(3-((2-((4-Fluorobenzyl)thio)pyrimidin-4-yl)oxy)propoxy)-2H-chromen-2-one]
[1]
  IC50: > 25 µM
SARS-CoV-2
  EC50: > 50 µM

## O=c1cc(OCCCOc2ccnc(SCc3ccc(F)cc3)n2)c2cc(F)ccc2o1 [5d, 6-Fluoro-4-(3-((2-((4-fluorobenzyl)thio)pyrimidin-4-yl)oxy)propoxy)-2H-chromen-2-one]
[3]; female, Wistar Albino
  GHS classification category: Category-4
[3]; po, 300 mg/kg
  clinical signs of toxicity and gross pathological changes: no signs of toxicity
[1]
  IC50: 15.4 µM
SARS-CoV-2
  EC50: 14.3 ± 0.14 µM
In vivo [4]
  Cmax: 220 ng/mL
  half-life: 73.3 h
In vivo [5]
  LD50: 500 to 1000 mg/kg

## O=c1cc(OCCOc2ccnc(SCc3ccc(Cl)cc3)n2)c2ccccc2o1 [5i, 4-(2-((2-((4-Chlorobenzyl)thio)pyrimidin-4-yl)oxy)ethoxy)-2H-chromen-2-one]
[1]
  IC50: > 25 µM
SARS-CoV-2
  selectivity index, SARS-CoV-2: <1
  EC50: > 50 µM

## Cc1cccc(CSc2nccc(OCCCOc3cc(=O)oc4ccccc34)n2)c1 [5f, 4-(3-((2-((3-Methylbenzyl)thio)pyrimidin-4-yl)oxy)propoxy)-2H-chromen-2-one]
[1]
  IC50: > 25 µM
SARS-CoV-2
  selectivity index, SARS-CoV-2: <1
  EC50: > 50 µM
